The results in this text go back to patent US10617749B1, “Composition of matter and methods for alteration of dendritic cell metabolism to augment cancer vaccine efficacy” (Duke University, priority 2016, dated 2020).

The subject of series [1] is DC-induced CD4+ Foxp3+ Tregs in draining lymph nodes. The series can be described thus: In vivo Treg assay. The following applies: conditioned primary DCs transferred into footpad of FoxP3-mRFP reporter mice. The protocol: (§1) In vivo Treg assay. DCs (C57, H-2^b) were pre-treated for 48 hours and delivered by intradermal injection into the footpad of Foxp3-mRFP mice. Draining inguinal and popliteal lymph nodes were resected 5 days later and analyzed for CD4^+ Foxp3^+ Tregs. In vitro Treg assay, DCs (Balb/c, H-2^d) were pre-treated for either 24 or 48 hrs, and re-plated at a 1:3 DC:T-cell ratio with purified naïve Foxp3-mRFP(H-2^b) CD4^+ Tcells. These co-cultures were incubated for 6 days and quantitated for CD4^+ FoxP3^+ Tregs by flow cytometry.

Series [2] has as its system DC-induced CD4+ FoxP3+ Tregs. Kind of series: In vitro Treg assay. Format: cell-based, mouse. On the procedure: as §1
(§2) Murine bone marrow-derived DCs (BMDCs) were harvested and differentiated as previously described and purified using CD11c microbeads (Miltenyi Biotec) according to manufacturer's protocol. DC purity was monitored by flow cytometry and consistently found to be >95% CD11c+F4/80-. BRAFV600EPTEN−/−-Wnt5aKD and BRAFV600EPTEN−/−-NTC cell lines were generated and cultured as previously described. DC2.4, a murine dendritic cell line was kindly provided by Dr. Kenneth L. Rock (University of Massachusetts Medical School), and cultured as previously described. DC2.4β-cateninKD, DC2.4-CPT1AKD, and DC2.4-NTC stable cell lines were generated using a β-catenin-targeted, CPT1A-targeted, or control shRNA-expressing lentivirus followed by puromycin selection. DCs were treated with Wnt3a (100 ng/mL), Wnt5a (200 ng/mL), LPS (1 μg/mL), 1-MT, 2DG (1 mM), or ETO (100 µM) vs vehicle control either for 24 or 48 hrs prior to their use in both in vitro and in vivo experiments.

Series [3] concerns human monocyte-derived DCs. Kind of series: OCR analysis of human monocyte-derived DCs. The conditions noted are these: human DCs pre-treated with Wnt5a 48 hours, short-term ETO. Format: cell-based. The protocol: Human DCs were differentiated from harvested peripheral blood mononuclear cells and pre-treated with Wnt5a 48 hours prior to OCR analysis. Short-term incubation with ETO was performed prior to analysis.
(§3) DC energy metabolism was measured using the XF^e24 extracellular flux analyzer (Seahorse Bioscience), with the glycolysis stress test kit and the mitochondrial stress test kit as previously described (Everts et al., 2014; Zhao and Klimecki, 2015).
Human Monocyte-derived Dendritic Cells were generated as previously described.

Series [4] relates to OT-1 CD8+ T cells. The series can be described thus: T cell proliferation assay. Format: cell-based, mouse. The conditions noted are these: SIINFEKL-loaded BMDCs co-incubated with OT-1 splenocytes. The protocol: Splenocytes of OT-1 mice (H-2^b) were isolated and stained with CellTrace Violet (ThermoFisher). Preconditioned DCs were loaded with ovalbumin peptide SIINFEKL, and co-cultured at a DC:splenocyte ratio of 40,000:120,000 cells for 72 hrs. CD8+ T cell proliferation was measured by the dilution of Cell Trace Violet dye by flow cytometry.

Series [5] concerns BRAFV600EPTEN−/− melanoma. Kind of series: Syngeneic transplant tumor study. The series is classed as in vivo, C57BL/6 mice. The protocol:
Mouse IFNγ ELISPOTPLUS (MABTECH) was performed according to manufacture guidelines. Imaging was conducted using a ChemiDoc System (BioRad) and quantified using ImageJ software.
Paraffin-embedded tissues were processed and stained following standard protocols and imaged with a Zeiss CLSM 700 confocal microscope. CD8 (BioLegend) and PD-L1 (Abcam) primary antibodies were utilized where indicated. Warp Red chromogen detection system (BioCare) was used for antigen visualization.
BRAFV600EPTEN−/− cells line were established as previously described. 5×10^5 cells were implanted by subcutaneous injection into syngeneic C57 mice. Tumor growth was monitored by caliper measurement. Etomoxir (Sigma, ETO) was administered daily by oral gavage (25 mg/kg/day). Anti-PD-1 rat mAb or rat IgG2a isotype control (BioXCell) was delivered every 3 days by intraperitoneal injection (250 μg/dose).

In series [6] the test system is bone marrow-derived DCs (BMDCs). The series can be described thus: DC oxygen consumption rate (OCR) / OXPHOS, extracellular flux analysis. The series is classed as cell-based, murine. The conditions noted are these: murine DCs pre-treated with Wnt5a vs Wnt5a+ETO. The protocol:
as §3, §2

In series [7] the test system is BRAFV600EPTEN−/− cells. The series can be described thus: Soft agar colony formation assay. Format: cell-based, mouse. The following applies: 15 days in presence or absence of ETO. On the procedure:
Complete growth media—0.7% agar was overlaid with complete growth media—[…] containing 10,000 cells and additional complete growth media. After 2 weeks, colonies were stained with MTT(Sigma) to identify viable colonies and imaged by a ChemiDoc XRSplus system as previously described. Images were analyzed with NIH ImageJ to enumerate colony number.

Series [8] relates to DC IDO. Kind of series: IDO enzymatic assay (kynurenine HPLC). Format: cell-based, mouse. On the procedure: DC IDO enzyme activity was measured by the conversion of L-tryptophan to L-kynurenine in conditioned media by HPLC (Pallotta et al., 2011). Intracellular hemin levels were measured using a colorimetric assay kit (BioVision).
In series [9] the test system is BMDCs. The series can be described thus: DC viability, Annexin V/PI flow cytometry. The series is classed as cell-based, murine. The following applies: BMDCs treated 48 hours. The source says: Data is representative of two-independent experiments.
Series [10] has as its system murine DCs. The series can be described thus: qrt-PCR / ELISA gene and cytokine expression in murine DCs. The series is classed as cell-based. The conditions noted are these: BMDCs, qrt-PCR. On the procedure: Total RNA was isolated by RNeasy Plus Mini Kit(Qiagen). RNA(500 ng) was used in cDNA Synthesis (iScript, BioRad). Quantification of mRNA for genes involved in PPARγ signaling was performed using Mouse PrimePCR PPAR Array according to the manufacturer's protocol (BioRad). Real-time PCR was performed using an ABI7500 Real-Time PCR system (Life Technologies). Data analysis utilized the PrimePCR Analysis Software (BioRad). Conventional qPCR was performed using validated primers (Table 1) and SsoAdvanced Universal SYBR Green Super mix (BioRad) or Taqman probes (Applied Biosystems) for heme synthesis enzymes.
Murine IL-6 (eBioscience) and IL-12p40 (Becton Dickinson) ELISAs were performed according to manufacture's protocol.

Series [11] has as its system autochthonous BRAFV600EPTEN−/− melanoma. The series can be described thus: Autochthonous tumor study with adoptively transferred pretreated DCs. The series is classed as in vivo, transgenic mice. The protocol:
B6.Cg-Braftm1Mmcm Ptentm1Hwu Tg(Tyr-cre/ERT2 H-2b)13Bos/BosJ (BRAFV600EPTEN−/−, H-2b), transgenic mice were subdermally injected with 4-HT (Sigma, 38.75 μg/mice) to induce primary melanoma development. Three days prior to 4-HT injection, 1×10^6 cells DCs pretreated with Wnt5a+/−ETO were washed and delivered by intra-dermal injection into the hind leg foot pads every 3-4 days until the conclusion of the experiment. Melanoma growth was monitored by orthagonal caliper measurements every 3-4 days between day 15 to day 32.

Series [12] deals with CPT1a. The series can be described thus: CPT1a silencing by shRNA-expressing lentiviral vector (qrt-PCR, Western blot). Format: cell-based, mouse.
Text: The application includes the sequence listing that is concurrently filed in computer readable form. This sequence listing is incorporated by reference herein.
as §2, with “experiments. […]” for “experiments.”
Total RNA was isolated by RNeasy Plus Mini Kit(Qiagen). […] Quantification of mRNA for genes involved in PPARγ signaling was performed using Mouse PrimePCR PPAR Array according to the manufacturer's protocol (BioRad). […]
A general note: Immunoblotting shows a protein as a band on a membrane.

Setting [13] is: DCs pretreated with Wnt5a+/−ETO.

Entries after “also recorded” stand apart in the source; their conditions may differ.

Take `CCOC(=O)[C@@]1(CCCCCCOc2ccc(Cl)cc2)CO1` [ETO, etomoxir]: the “DC-mediated Treg differentiation in vivo” value in series [1] was “ablate; also recorded: potently suppress the ability of Wnt5a-conditioned DCs to drive Treg differentiation; also recorded: inhibits Wnt5a-conditioning of DC-mediated Treg development in vivo”. Further, the “DC-mediated Treg differentiation in vitro, IDO−/− DCs” value in series [2] (DCs derived from IDO−/− mice +/−ETO) is listed as “dramatically suppress the ability of IDO^−/− DCs to drive Treg differentiation; also recorded: inhibition of DC-mediated Treg generation extends beyond IDO activity”. The “DC-mediated Treg differentiation in vitro” value in [2] (pre-treated DCs co-cultured with naïve CD4+ T cells) is listed as “ablate; also recorded: potently suppress the ability of Wnt5a-conditioned DCs to drive Treg differentiation; also recorded: inhibits Wnt5a-conditioning of DC-mediated Treg development in vitro”. In series [3], the “Wnt5a-induced DC mitochondrial respiration (OCR)” value was “completely ablate Wnt5a induction of both murine and human DC mitochondrial respiration”. In addition, the “DC-mediated antigen-specific CD8+ T cell proliferation” value in series [4] was “significantly augment in vitro DC-dependent T cell proliferation to levels similar to that of LPS stimulation; also recorded: potently induce DC-mediated T cell activation to levels similar to those seen in response to LPS-treatment of DCs; also recorded: enhances the ability of DCs to induce OT-1 T cell proliferation”. Moreover, in [5] (ETO 25 mg/kg/day oral gavage plus anti-PD-1 250 μg/dose i.p. every 3 days), the “primary melanoma growth, ETO combined with anti-PD-1 antibody” value is recorded as “significantly enhanced the anti-tumor efficacy of the anti-PD-1 antibody; also recorded: augments anti-PD-1 antibody suppression”. Moreover, the “primary melanoma progression, monotherapy” value in series [5] (ETO 25 mg/kg/day oral gavage, anti-PD-1 250 μg/dose i.p. every 3 days) is on record as “suppresses the progression of BRAF^V600E-PTEN^−/− melanoma similar to anti-PD-1 antibody monotherapy”. For the same molecule, the “Wnt5a-induced DC OXPHOS / mitochondrial respiration (OCR)” value in series [6] is “ablate Wnt5a-induced DC OXPHOS; also recorded: completely ablate Wnt5a induction of both murine and human DC mitochondrial respiration; also recorded: abrogates Wnt5a-induced DC OXPHOS”. The “intrinsic proliferative capacity of tumor cells (soft agar colonies)” value in series [7] was “has no impact on the intrinsic proliferative capacity of this tumor model”. The “TIDC IDO enzyme activity (kynurenine)” value in series [8] (TIDCs purified from BRAFV600E-PTEN−/−-NTC tumors) was “lower levels of IDO enzyme activity”. For the same molecule, the “DC IDO enzymatic activity (kynurenine)” value in series [8] (purified DC cultures, Wnt5a or Wnt5a+ETO) is listed as “completely eliminated this effect; also recorded: reverses Wnt5a-stimulation of DC IDO enzymatic activity”. For the same molecule, the DC viability result in series [9] was “does not impair DC viability; also recorded: not impacting DC viability”. Also, in series [10], the “IL-6 and IL-12 expression in primary DCs” value is listed as “alterations in cytokine expression were further recapitulated”. In series [11] (setting [13]), the “Tregs within draining LN tissues” value is recorded as “suppression of Tregs within draining LN tissues” and the “melanoma-infiltrating CD8+ T cells” value was “enhanced numbers of melanoma-infiltrating CD8+ T cells”. The primary melanoma progression entry in [11] (DCs pretreated with Wnt5a+/−ETO transferred to foot pads) was “potently suppress primary melanoma progression”.

With “SEQ ID NO:1: shRNA sequence for silencing mouse CPT1a (guide CCGGGCTATGGTGTTTCCTACATTACTCGAGTAATGTAGGAAACACCATAGCTTTTTG)”, in series [12], the “silencing of mouse CPT1a expression” value is reported as “effective for silencing the expression of mouse CPT1a”.
